Like-named read-outs stand apart in the source and are kept apart here.
Legend:
[1] = MALDI imaging mass spectrometry of dermal tissues adjacent to the implant; format: in vivo, C57BL/6 J mice; conditions: for Detection by MALDI-IMS in dermal tissue samples during implant TAF delivery: all medicated specimens; for Spatial distribution in dermal tissue sections (MALDI-IMS): high-releasing (0.58 mg d^-1) implants, D3–D28; for MALDI-IMS signal and localization with implant in situ: low-releasing (0.23 mg d^-1) implants, Day 14, 100 µm resolution
Method: The used implants, the surrounding capsule, and the encasing dermal tissue were removed as a block in accordance with ISO 10993-6 guidelines, processed and stored, as described elsewhere. Briefly, the capsule was cut longitudinally and rolled open, taking care not to disrupt the architecture of the tissue or to damage the used implant. A portion of the tissue specimen was placed into 4% paraformaldehyde solution (phosphate-buffered at pH 7.2), and stored at 4 °C, for histopathology and two other portions were flash-frozen in liquid nitrogen for drug concentration analysis as well as for drug spatial distribution analysis by MALDI-IMS (vide infra).
Frozen mouse tissue specimens were shipped to Vanderbilt University on dry ice and stored at − 80 °C prior to use. Tissues were removed from the − 80 °C freezer and placed in a − 20 °C cryostat (CM 1900, Leica Biosystems, Buffalo Grove, IL) and sectioned. Tissue samples that had been prepared via removal of the used implant were affixed to the cryostat chuck with optimal cutting temperature (OCT) polymer and were cut on the cryostat into 12 µm thick sections for imaging mass spectrometry and H&E staining.
Tissue samples that still contained the implant in place were embedded in OCT prior to sectioning. In order to minimize the artifactual signal from the TAF powder after sectioning (the act of the cryostat blade cutting through an intact implant distributed residual TAF powder that still remained in the used implant onto the surrounding tissue section), house vacuum was used to remove visible TAF powder, followed by lightly running nitrogen gas over the plate to remove any additional loose powder from the slide.
The tissue sections were thaw-mounted onto indium-tin oxide coated glass slides for imaging (Delta Technologies, Ltd, Loveland, CO). The tissue sections were left to dry for at least 15 min in a desktop vacuum desiccator prior to matrix application. […] For 9AA, four passes were applied at 85 °C in a crisscross pattern, with a 700 mm min^-1 stage velocity, 2 mm track spacing, and 0.15 mL min^-1 flow rate. For DHB the same method was used, except eight passes were applied and the stage velocity was 1300 mm min^-1.
Flash-frozen dermal tissue samples collected adjacent to the TAF implants and sectioned were analyzed with a linear ion trap mass spectrometer equipped with a MALDI source and a nitrogen laser (LTQ XL, Thermo Scientific, Waltham, MA). The structures of compounds of interest are shown in Scheme 1. Targeted MS/MS methods were optimized for each compound using authentic samples as standards, with the final parameters shown in Appendix A under Supplementary Information. Pseudo-selected reaction monitoring mode was used for imaging by isolating precursor ions with a 1 Da window, fragmenting them, and acquiring full product ion mass spectra at each pixel. TFV, TFV-MP, and TFV-DP were analyzed in negative ion mode, while TAF, Metabolite X, and Metabolite Y were analyzed in positive ion mode. In most cases, after imaging, the matrix was removed and the tissue section that had been imaged was H&E stained for better image registration with tissue morphology. Standard images were acquired at either 50 or 100 µm spatial resolution. Reconstructed ion images were generated in ImageQuest software (Thermo Scientific, Waltham, MA) by plotting the intensity of the diagnostic fragment ion or ions as a function of location across the tissue surface.

[2] = rat, in vivo; cited from earlier work
[3] = cited from earlier work
OAT1 = conditions: in vitro studies; cited from earlier work
[4] = rapidly converts to TFV; cited from earlier work
[5] = format: in vivo, C57BL/6 J mice; conditions: Day 28, pathologist evaluation, low and high doses
Method: Toxicity was evaluated by clinical observations, cage-side observations (twice daily), and body weight (weekly). Formaldehyde-fixed dermal tissue specimens (one per animal) were paraffin-embedded, sectioned, and H&E stained using established methods (JIT Labs, jit-labs.com). The slides were evaluated for microscopic findings by a certified pathologist (Vet Path Services, Inc., Mason, OH). Histopathology grades were assigned as grade 1 (minimal), grade 2 (mild), grade 3 (moderate), grade 4 (marked), or grade 5 (severe) based on an increasing extent of overall change.

OAT3 = conditions: in vitro studies; cited from earlier work
[6] = Simulation of plasma TFV and PBMC TFV-DP following TAF delivery from implants; design: species or system C57BL/6 J mice; conditions: dose-dependent
Method: All other parameters were unmodified from Table 2. Our starting hypothesis was that the difference between SQ injection and long-acting SQ delivery via implant would be strictly related to the implant release rate. Once the drug was released from the device, it was hypothesized to be transferred from the SQ pocket to body circulation via the same mechanism and governed by the same parameters as by SQ injection, and therefore the same model was employed.
Compartmental analyses were performed in Phoenix software (version 8.3, Certara, Princeton, NJ) using a published, simple, structural PK model describing the TFV kinetics. IV and SQ data were modeled simultaneously. Due to the destructive nature of the blood sampling, data were modeled using a naïve-pooled algorithm, without inter-animal variability. The resulting systemic parameters, along with the implant in vivo release rates on a per animal basis, were used to co-model (predict) concentration data in mice following during implant dosing.

HIV-1 [7] = tested on: HIV-1
Method: The BLT hu-mouse model has been used extensively in efficacy studies involving HIV-1 prevention research[54]–[58]. […] The mice were challenged with HIV-1 either rectally or vaginally 6 h post dosing and monitored for infection status for 12 weeks.
The generation of BLT hu-mice was performed as described in Baum et al.[58], and the references contained therein.
Vaginal or rectal challenge with HIV-1 was performed 6 h after dosing and HIV-1 infection status was monitored by quantifying viral RNA concentration in peripheral blood (plasma) at 1, 2, 3, 6, and 12 weeks post challenge as fully described in Baum et al.[58], and the references contained therein.

[8] = Subdermal TAF implant pharmacokinetic mouse study; format: in vivo; conditions: low- and high-releasing implants
Text: Two study groups are described here: one low-releasing and one high-releasing implant group. Animals (N = 3 per implant group) were sacrificed at the following timepoints: Day 3, 7, 14, 21, and 28 (15 mice total per implant group).

HIV-1 [9] = conditions: cited from earlier work
[10] = design: method as in PMID 23600365; conditions: healthy individuals; cited from earlier work
[11] = Subcutaneous TAF injection pharmacokinetic mouse study; format: in vivo, C57BL/6 J mice; conditions: C57BL/6 J, PBMCs, 0.5 mg, read-out: PBMC TFV-DP t1/2 (converted)
Method: C57BL/6 J Mice (12 groups of 4 animals each; 48 mice total) were administered the study product (0.5 mg dose, 0.1 mL) described above by subcutaneous (SQ) injection. Animals (N = 4) were sacrificed at the following timepoints: Day 1 (1, 3, 6, 12, 24 h), Day 2, 4, 6, 8, 10, 12, and 14. Blood was collected by exsanguination and processed as described above.
(§1) PBMC results were normalized to the number of cells and reported as fmol/10^6 cells or as intracellular concentration based on cell volume, in nM. Tissue results were normalized to sample mass and reported as ng mg^-1 or fmol mg^-1.

[12] = Intravenous TAF pharmacokinetic mouse study (plasma, PBMC, tissue homogenate); format: in vivo, C57BL/6 J mice; conditions: for half-life: C57BL/6 J, mouse, iv, 0.5 mg
Method: C57BL/6 J Mice (9 groups of 4 animals each; 36 mice total) were administered the study product (0.5 mg dose, 0.1 mL) by intravenous (IV) injection. Animals (N = 4) were sacrificed at the following timepoints: Day 1 (1, 3, 6, 12, 24 h), Day 2, 4, 8, and 14. Blood was collected by exsanguination along with select tissue specimens (vide infra).
The isolation of plasma and PBMCs from blood samples was carried out in a laminar flow hood using aseptic techniques, and the entire process was completed in under 45 min to minimize analyte metabolism. Blood was transferred into collection tubes containing sodium citrate (final concentration, 0.4% w/v), diluted using one volume equivalent of 1 × PBS solution, and mixed by inversion. The minimum final volume was 4.0 mL. Prior to the addition of blood samples, Ficoll-Paque media (MilliporeSigma, Burlington, MA, 3.2 mL) was transferred into a 12 mL LeucoSep tube (Greiner, Monroe, NC) and centrifuged at 1000 g for 20 s at room temperature, causing the media to settle just below the porous barrier. The homogenous, diluted blood-PBS mixture was transferred into the prepared LeucoSep tube and centrifuged at 1000 g for 10 min at room temperature, resulting in the formation of three layers above the porous barrier: (A) top layer, consisting of the plasma fraction; (B) middle, interface layer, containing the PBMCs; and (C) thin lower layer, just above the barrier, consisting of Ficoll-Paque media. Layer A (plasma) was transferred to empty 1.5 mL microfuge tubes in 0.5 mL aliquots, and flash-frozen in liquid nitrogen. Layer B (PBMCs) was transferred into an empty 15 mL centrifuge tube and PBS added to the 12 mL mark, followed by gentle inversion mixing. The suspension was centrifuged at 400 g for 15 min, the supernatant removed, and the pellet resuspended in PBS (10 mL) by gentle pipetting. An aliquot (10 µL) was removed from the suspension for cell counting and the remaining sample was centrifuged at 400 g for 15 min. The supernatant was removed without disturbing the cell pellet, which was treated with ice-cold 70% v/v methanol in molecular-grade water (1.0 mL). The mixture was mixed lightly by vortex agitation to lyse the cells, followed by transfer to a 2.0 mL cryovial that was flash-frozen in liquid nitrogen.
Vaginal, rectal, spleen, and thymus tissue samples were collected from sacrificed animals at Day 1 (12, 24 h), Day 4, and 8; rectal tissue samples were not collected at 12 h. The samples were transferred into pre-weighed sample tubes, weighed, and flash-frozen in liquid nitrogen.
as §1

[13] = oral TAF 6 h before rectal HIV-1 challenge
[14] = oral TAF 6 h before vaginal HIV-1 challenge

SMILES: C[C@H](Cn1cnc2c(N)ncnc21)OC[P@@](=O)(O)N[C@@H](C)C(=O)O [Metabolite X]
- Detection by MALDI-IMS in dermal tissue samples during implant TAF delivery [1]: detected
- Spatial distribution in dermal tissue sections (MALDI-IMS) [1]: localized close to the implant
- MALDI-IMS signal and localization with implant in situ [1]: localized close to the implant

SMILES: CC(C)OC(=O)[C@H](C)N[P@](=O)(O)CO[C@H](C)Cn1cnc2c(N)ncnc21 [Metabolite Y]
- Detection by MALDI-IMS in dermal tissue samples during implant TAF delivery [1]: detected
- Spatial distribution in dermal tissue sections (MALDI-IMS) [1]: localized close to the implant
- MALDI-IMS signal and localization with implant in situ [1]: localized close to the implant

SMILES: O=C(O)C[C@@H]1Cc2ccc(OCCCNc3ccccn3)cc2Cc2ccccc21 [SB-265123]
- Apparent oral F [2]: exceeding 100%

SMILES: CC(C)OC(=O)[C@H](C)N[P@](=O)(CO[C@H](C)Cn1cnc2c(N)ncnc21)Oc1ccccc1 [TAF, tenofovir alafenamide]
- Efflux transport in the intestine [3]: vulnerable to efflux transport
- Substrate for renal uptake transporter OAT1 (OAT1): not believed to be a substrate
- Stability in mouse plasma [4]: highly unstable
- Effect of TAF dose on microscopic appearance of tissues [5]: no effects
- Substrate for renal uptake transporter OAT3 (OAT3): not believed to be a substrate
- Exposure scaling (apparent bioavailability) from subdermal implants vs SQ or IV injection [6]: 4–5 ×
- Protection from rectal HIV-1 acquisition (HIV-1 [7]; oral TAF): fully protective
- Protection from vaginal HIV-1 acquisition (HIV-1 [7]; oral TAF): fully protective
- ED50 (HIV-1 [7]; [13]): 1.27 µmol
- ED90 (HIV-1 [7]; [13]): 1.62 µmol
- ED50 (HIV-1 [7]; [14]): 1.17 µmol
- ED90 (HIV-1 [7]; [14]): 2.15 µmol
- m-value ± SEM (median-effect model) (HIV-1 [7]; rectal): 9.18 ± 1.94
- m-value ± SEM (median-effect model) (HIV-1 [7]; vaginal): 3.60 ± 0.22
- Impurities formed during in vivo implant use (HPLC of retrieved implants): less than 1%
- TAF peak area of total peak area (TAF and decomposition products) in retrieved implants (HPLC, irrespective of the implant group): > 98%
- Detection by MALDI-IMS in dermal tissue samples during implant TAF delivery [1]: detected
- Spatial distribution in dermal tissue sections (MALDI-IMS) [1]: localized close to the implant
- MALDI-IMS signal and localization with implant in situ [1]: most abundant signals

SMILES: C[C@H](Cn1cnc2c(N)ncnc21)OCP(=O)(O)OP(=O)(O)OP(=O)(O)O [TFV-DP, TFV diphosphate]
- Share of total TFV species present as TFV-DP, dermal tissue adjacent to TAF implants [8]: less than 1%
- TFV-DP EC90 (more conservative) (HIV-1 [9]; corrected for TFV-DP loss on cryopreservation): 24 to 48 fmol/10^6 cells
- PBMC TFV-DP concentration associated with 90% protection (HIV-1 [9]; post hoc analysis of iPrEX, cryopreserved PBMCs): 16 fmol/10^6 cells
- Intracellular (PBMC) TFV-DP half-life [10]: 48 h
- half-life [11]: 17 h
- half-life ([12]; PBMCs, read-out: PBMC TFV-DP t1/2 (converted)): 41 h
- Share of total TFV present as TFV-DP, vaginal tissue ([12]; IV TAF dosing): 5.1%
- Median vaginal x(TFV-DP) lower than rectal, spleen, thymus ([12]; IV TAF, depending on the compartment): 4.7–6.7 fold
- half-life ([12]; female, rectal tissue, read-out: Terminal half-life in rectal tissue (NCA) (converted)): 26.4 h
- half-life ([12]; female, spleen, read-out: Terminal half-life in spleen (NCA) (converted)): 23.3 h
- half-life ([12]; female, thymus, read-out: Terminal half-life in thymus (NCA) (converted)): 23.3 h
- half-life ([12]; female, vaginal tissue, read-out: Terminal half-life in vaginal tissue (NCA) (converted)): 31.2 h
- Duration of TFV-DP concentrations in tissues ([12]; single bolus IV TAF administration): > 8 days
- TFV-DP mole fraction x(TFV-DP), vaginal tissue, median (IQR) ([12]; tissue homogenate, IV TAF dosing): 0.051 (0.022–0.080)
- Detection by MALDI-IMS in dermal tissue samples during implant TAF delivery [1]: detected
- Spatial distribution in dermal tissue sections (MALDI-IMS) [1]: distributed homogeneously throughout the samples
- MALDI-IMS signal and localization with implant in situ [1]: weak

SMILES: C[C@H](Cn1cnc2c(N)ncnc21)OCP(=O)(O)OP(=O)(O)O [TFV-MP]
- Detection by MALDI-IMS in dermal tissue samples during implant TAF delivery [1]: detected
- Spatial distribution in dermal tissue sections (MALDI-IMS) [1]: distributed homogeneously throughout the samples
- MALDI-IMS signal and localization with implant in situ [1]: weak
